Reference: US20230148214A1, “INDAZOLES AND AZAINDAZOLES AS LRRK2 INHIBITORS” (ESCAPE Bio, Inc., priority 2020, published 2023)
pIC50: −log10 of the molar value.

Columns and labels:
LRRK2 WT = molecular target: T1, LRRK2 WT (Homo sapiens, UniProt Q5S007); test: LRRK2 Kinase Activity Assay (LanthaScreen TR-FRET), wild type; assay type: biochemical; conditions: recombinant wild type LRRK2, 25 μM ATP, 400 nM LRRKtide, 60 min; class symbols
T1 construct: purchased Life Technologies PR8604B
Outline: (§1)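 Recombinant wild-type or G2019S LRRK2 incubated with fluorescein-labeled LRRKtide (ERM-based) peptide, ATP and serially diluted compound for 60 min at room temperature.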

LRRK2 G2019S = molecular target: T2, LRRK2 G2019S (Homo sapiens, UniProt Q5S007, G2019S); test: LRRK2 Kinase Activity Assay (LanthaScreen TR-FRET), G2019S; assay type: biochemical; conditions: recombinant G2019S-LRRK2, 25 μM ATP, 400 nM LRRKtide, 60 min; class symbols
T2 construct: purchased Life Technologies PV4881
T2 sequence (Q5S007 whole entry G2019S): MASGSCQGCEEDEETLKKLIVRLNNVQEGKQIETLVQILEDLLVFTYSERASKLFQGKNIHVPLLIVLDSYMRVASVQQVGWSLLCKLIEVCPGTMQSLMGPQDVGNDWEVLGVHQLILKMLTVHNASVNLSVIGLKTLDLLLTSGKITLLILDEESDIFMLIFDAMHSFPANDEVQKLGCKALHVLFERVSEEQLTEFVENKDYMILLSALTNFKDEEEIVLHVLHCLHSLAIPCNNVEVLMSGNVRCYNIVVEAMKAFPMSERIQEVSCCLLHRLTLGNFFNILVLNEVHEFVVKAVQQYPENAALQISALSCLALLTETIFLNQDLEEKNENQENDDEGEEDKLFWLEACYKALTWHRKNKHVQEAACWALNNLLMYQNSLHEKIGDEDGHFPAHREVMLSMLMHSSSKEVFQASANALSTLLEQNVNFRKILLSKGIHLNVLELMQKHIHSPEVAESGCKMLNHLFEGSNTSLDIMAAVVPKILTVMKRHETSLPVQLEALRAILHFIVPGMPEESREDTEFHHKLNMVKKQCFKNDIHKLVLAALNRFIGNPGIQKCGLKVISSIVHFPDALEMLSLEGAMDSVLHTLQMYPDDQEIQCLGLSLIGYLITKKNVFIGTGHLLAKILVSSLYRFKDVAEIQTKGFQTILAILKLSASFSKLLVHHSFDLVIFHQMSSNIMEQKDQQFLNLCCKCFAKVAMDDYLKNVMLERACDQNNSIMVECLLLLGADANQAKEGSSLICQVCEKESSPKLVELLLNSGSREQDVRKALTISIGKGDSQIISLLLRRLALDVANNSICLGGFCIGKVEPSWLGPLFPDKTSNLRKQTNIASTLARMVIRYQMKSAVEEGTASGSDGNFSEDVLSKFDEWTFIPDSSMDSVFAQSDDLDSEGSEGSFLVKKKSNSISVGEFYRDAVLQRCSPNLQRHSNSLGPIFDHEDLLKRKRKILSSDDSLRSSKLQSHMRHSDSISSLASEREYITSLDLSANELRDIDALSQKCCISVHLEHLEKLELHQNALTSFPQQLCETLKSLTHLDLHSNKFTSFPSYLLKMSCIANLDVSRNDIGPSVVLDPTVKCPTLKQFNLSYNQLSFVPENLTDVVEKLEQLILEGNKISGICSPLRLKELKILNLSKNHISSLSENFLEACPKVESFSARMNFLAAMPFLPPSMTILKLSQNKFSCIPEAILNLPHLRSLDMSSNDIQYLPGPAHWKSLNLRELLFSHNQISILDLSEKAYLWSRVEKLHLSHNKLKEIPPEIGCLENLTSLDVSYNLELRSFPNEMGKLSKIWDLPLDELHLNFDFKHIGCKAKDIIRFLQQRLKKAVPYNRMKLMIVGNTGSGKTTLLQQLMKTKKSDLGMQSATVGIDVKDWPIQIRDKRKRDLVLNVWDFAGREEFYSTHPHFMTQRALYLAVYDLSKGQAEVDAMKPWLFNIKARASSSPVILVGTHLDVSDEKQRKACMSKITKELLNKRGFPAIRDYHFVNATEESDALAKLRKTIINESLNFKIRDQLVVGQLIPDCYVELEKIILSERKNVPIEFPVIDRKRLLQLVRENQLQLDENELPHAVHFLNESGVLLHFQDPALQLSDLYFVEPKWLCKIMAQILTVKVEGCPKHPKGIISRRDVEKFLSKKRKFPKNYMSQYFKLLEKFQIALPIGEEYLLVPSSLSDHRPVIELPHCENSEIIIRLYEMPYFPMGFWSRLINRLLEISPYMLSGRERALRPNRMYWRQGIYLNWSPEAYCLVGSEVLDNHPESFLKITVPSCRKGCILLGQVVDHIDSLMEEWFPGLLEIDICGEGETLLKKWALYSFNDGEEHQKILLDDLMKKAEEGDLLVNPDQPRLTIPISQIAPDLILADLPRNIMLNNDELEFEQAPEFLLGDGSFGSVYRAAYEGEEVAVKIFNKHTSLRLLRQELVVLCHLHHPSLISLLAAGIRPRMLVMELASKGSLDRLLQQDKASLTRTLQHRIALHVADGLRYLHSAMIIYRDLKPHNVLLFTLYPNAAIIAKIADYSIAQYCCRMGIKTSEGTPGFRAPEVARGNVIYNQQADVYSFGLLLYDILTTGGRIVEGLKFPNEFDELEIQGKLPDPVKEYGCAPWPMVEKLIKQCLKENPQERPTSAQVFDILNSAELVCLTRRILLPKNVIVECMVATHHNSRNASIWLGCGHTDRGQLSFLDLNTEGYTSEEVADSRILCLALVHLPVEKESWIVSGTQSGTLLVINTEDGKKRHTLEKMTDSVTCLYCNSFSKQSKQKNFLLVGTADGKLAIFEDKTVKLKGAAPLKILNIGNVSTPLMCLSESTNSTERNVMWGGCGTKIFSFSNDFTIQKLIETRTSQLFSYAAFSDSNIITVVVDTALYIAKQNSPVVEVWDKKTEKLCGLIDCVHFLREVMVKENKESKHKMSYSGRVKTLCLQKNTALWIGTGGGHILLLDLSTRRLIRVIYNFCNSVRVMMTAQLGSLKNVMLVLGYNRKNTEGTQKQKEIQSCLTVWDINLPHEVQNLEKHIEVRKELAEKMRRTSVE
Outline: as §1

T1 sequence (Q5S007 whole entry): as the sequence (Q5S007 whole entry G2019S) above, with S2019G counted along it

SMILES | pIC50 (LRRK2 WT) | pIC50 (LRRK2 G2019S)
Cc1c(C#N)cnc2c1CCC[C@@H]2Nc1ccc2[nH]nc(-c3cnco3)c2c1 (single isomer, unassigned) [Example 150, enantiomer 1, 4-Methyl-8-((3-(oxazol-5-yl)-1H-indazol-5-yl)amino)-5,6,7,8-tetrahydroquinoline-3-carbonitrile] | 6.00 to 7.00 | 6.00 to 7.00
N#Cc1ccc2c(c1F)CC(F)(F)[C@@H]2Nc1ccc2[nH]nc(-c3cnco3)c2c1 (single isomer, unassigned) [Example 151, enantiomer 1, 2,2,4-Trifluoro-1-((3-(oxazol-5-yl)-1H-indazol-5-yl)amino)-2,3-dihydro-1H-indene-5-carbonitrile] | 6.00 to 7.00 | > 7.00
N#Cc1ccc2c(c1)CCCC2Oc1ccc2[nH]nc(C(F)(F)F)c2c1 (single isomer, unassigned) [Example 152, enantiomer 1, 5-((3-(Trifluoromethyl)-1H-indazol-5-yl)oxy)-5,6,7,8-tetrahydronaphthalene-2-carbonitrile] | 5.00 to 6.00 | 5.00 to 6.00
N#Cc1ccc2c(c1)CCCC2Nc1ccc2[nH]nc(C(F)(F)F)c2c1 (single isomer, unassigned) [Example 153, enantiomer 1, 5-((3-(Trifluoromethyl)-1H-indazol-5-yl)amino)-5,6,7,8-tetrahydronaphthalene-2-carbonitrile] | 5.00 to 6.00 | > 7.00
N#Cc1ccc2c(c1)CCC[C@@H]2Nc1ccc2[nH]nc(-c3ccn[nH]3)c2c1 (single isomer, unassigned) [Example 157, enantiomer 1, 5-((3-(1H-Pyrazol-5-yl)-1H-indazol-5-yl)amino)-5,6,7,8-tetrahydronaphthalene-2-carbonitrile] | 6.00 to 7.00 | 6.00 to 7.00
N#Cc1cnc2c(c1)CCC[C@@H]2Oc1ccc2[nH]nc(-c3cnccn3)c2c1 (single isomer, unassigned) [Example 161, enantiomer 2, 8-((3-(Pyrazin-2-yl)-1H-indazol-5-yl)oxy)-5,6,7,8-tetrahydroquinoline-3-carbonitrile] | 6.00 to 7.00 | > 7.00
[2H][C@]1(Nc2ccc3[nH]nc(-c4cnco4)c3c2)CCCc2cc(C#N)cnc21 (single isomer, unassigned) [Example 162, enantiomer 1, 8-Deuterio-8-((3-(oxazol-5-yl)-1H-indazol-5-yl)amino)-5,6,7,8-tetrahydroquinoline-3-carbonitrile] | 6.00 to 7.00 | 6.00 to 7.00
N#Cc1cnc2c(n1)CCC[C@@H]2Oc1ccc2[nH]nc(-c3cnco3)c2c1 (single isomer, unassigned) [Example 163, enantiomer 1, 5-[[3-(1,3-Oxazol-5-yl)-1H-indazol-5-yl]oxy]-5,6,7,8-tetrahydroquinoxaline-2-carbonitrile] | 6.00 to 7.00 | > 7.00
Cc1nc2c(c(C)c1C#N)CCC[C@@H]2Nc1ccc2[nH]nc(-c3cnco3)c2c1 (single isomer, unassigned) [Example 164, enantiomer 1, 2,4-Dimethyl-8-[[3-(1,3-oxazol-5-yl)-1H-indazol-5-yl]amino]-5,6,7,8-tetrahydroquinoline-3-carbonitrile] | 6.00 to 7.00 | > 7.00
COc1nc2c(c(C)c1C#N)CCC[C@@H]2Nc1ccc2[nH]nc(-c3cnco3)c2c1 (single isomer, unassigned) [Example 165, enantiomer 1, 2-Methoxy-4-methyl-8-[[3-(1,3-oxazol-5-yl)-1H-indazol-5-yl]amino]-5,6,7,8-tetrahydroquinoline-3-carbonitrile] | 6.00 to 7.00 | > 7.00
N#Cc1c(F)cc2c(c1F)CC[C@@H]2Oc1ccc2[nH]nc(-c3cnco3)c2c1 (single isomer, unassigned) [Example 167, enantiomer 1, 4,6-Difluoro-1-[[3-(1,3-oxazol-5-yl)-1H-indazol-5-yl]oxy]-2,3-dihydro-1H-indene-5-carbonitrile] | 6.00 to 7.00 | > 7.00
C[C@@H]1C[C@@H](Nc2ccc3[nH]nc(-c4cnco4)c3c2)c2ccc(C#N)cc21 (single isomer, unassigned) [Example 168, enantiomer 1, trans-3-Methyl-1-[[3-(1,3-oxazol-5-yl)-1H-indazol-5-yl]amino]-2,3-dihydro-1H-indene-5-carbonitrile] | 6.00 to 7.00 | > 7.00
C[C@@H]1C[C@@H](Nc2ccc3[nH]nc(-c4cnco4)c3c2)c2ccc(C#N)cc21 (single isomer, unassigned) [Example 168, enantiomer 2, trans-3-Methyl-1-[[3-(1,3-oxazol-5-yl)-1H-indazol-5-yl]amino]-2,3-dihydro-1H-indene-5-carbonitrile] | 6.00 to 7.00 | > 7.00

Other lines, results leading:

pIC50 (LRRK2 WT) | pIC50 (LRRK2 G2019S) | SMILES
6.00 to 7.00 | 6.00 to 7.00 | N#Cc1cnc2c(c1)CCC[C@@H]2Nc1ccc2[nH]nc(-c3ccc[nH]3)c2c1 (single isomer, unassigned) [Example 148, enantiomer 2, 8-((3-(1H-Pyrrol-2-yl)-1H-indazol-5-yl)amino)-5,6,7,8-tetrahydroquinoline-3-carbonitrile]
6.00 to 7.00 | 6.00 to 7.00 | Cn1ccc(-c2n[nH]c3ccc(N[C@H]4CCCc5cc(C#N)cnc54)cc23)c1 (single isomer, unassigned) [Example 149, enantiomer 1, 8-((3-(1-Methyl-1H-pyrrol-3-yl)-1H-indazol-5-yl)amino)-5,6,7,8-tetrahydroquinoline-3-carbonitrile]
> 7.00 | > 7.00 | Cn1ccc(-c2n[nH]c3ccc(N[C@H]4CCCc5cc(C#N)cnc54)cc23)c1 (single isomer, unassigned) [Example 149, enantiomer 2, 8-((3-(1-Methyl-1H-pyrrol-3-yl)-1H-indazol-5-yl)amino)-5,6,7,8-tetrahydroquinoline-3-carbonitrile]
> 7.00 | > 7.00 | Cc1c(C#N)cnc2c1CCC[C@@H]2Nc1ccc2[nH]nc(-c3cnco3)c2c1 (single isomer, unassigned) [Example 150, enantiomer 2, 4-Methyl-8-((3-(oxazol-5-yl)-1H-indazol-5-yl)amino)-5,6,7,8-tetrahydroquinoline-3-carbonitrile]
> 7.00 | > 7.00 | COc1c(C#N)cnc2c1CC[C@@H]2Nc1ccc2[nH]nc(-c3cnco3)c2c1 (single isomer, unassigned) [Example 154, enantiomer 2, 4-Methoxy-7-((3-(oxazol-5-yl)-1H-indazol-5-yl)amino)-6,7-dihydro-5H-cyclopenta[b]pyridine-3-carbonitrile]
> 7.00 | > 7.00 | Cc1ncc(-c2n[nH]c3ccc(N[C@@H]4c5ccc(C#N)cc5CC4(F)F)cc23)o1 (single isomer, unassigned) [Example 155, enantiomer 1, 2,2-Difluoro-1-((3-(2-methyloxazol-5-yl)-1H-indazol-5-yl)amino)-2,3-dihydro-1H-indene-5-carbonitrile]
> 7.00 | > 7.00 | Cc1ncc(-c2n[nH]c3ccc(O[C@H]4CCc5c4ccc(C#N)c5F)cc23)o1 (single isomer, unassigned) [Example 156, enantiomer 1, 4-Fluoro-1-((3-(2-methyloxazol-5-yl)-1H-indazol-5-yl)oxy)-2,3-dihydro-1H-indene-5-carbonitrile]
> 7.00 | > 7.00 | N#Cc1ccc2c(c1)CCC[C@@H]2Nc1ccc2[nH]nc(-c3ccn[nH]3)c2c1 (single isomer, unassigned) [Example 157, enantiomer 2, 5-((3-(1H-Pyrazol-5-yl)-1H-indazol-5-yl)amino)-5,6,7,8-tetrahydronaphthalene-2-carbonitrile]
> 7.00 | > 7.00 | Cc1cc(-c2n[nH]c3ccc(N[C@H]4CCCc5cc(C#N)cnc54)cc23)sn1 (single isomer, unassigned) [Example 158, enantiomer 1, 8-((3-(3-Methylisothiazol-5-yl)-1H-indazol-5-yl)amino)-5,6,7,8-tetrahydroquinoline-3-carbonitrile]
> 7.00 | > 7.00 | Cc1ncc(-c2n[nH]c3ccc(N[C@H]4CCCc5cc(C#N)c(C)nc54)cc23)o1 (single isomer, unassigned) [Example 159, enantiomer 1, 2-Methyl-8-((3-(2-methyloxazol-5-yl)-1H-indazol-5-yl)amino)-5,6,7,8-tetrahydroquinoline-3-carbonitrile]
> 7.00 | > 7.00 | Cc1ncc(-c2n[nH]c3ccc(O[C@H]4CCc5cc(C#N)c(F)cc54)cc23)o1 (single isomer, unassigned) [Example 160, enantiomer 1, 6-Fluoro-1-((3-(2-methyloxazol-5-yl)-1H-indazol-5-yl)oxy)-2,3-dihydro-1H-indene-5-carbonitrile]
> 7.00 | > 7.00 | N#Cc1cnc2c(c1)CCC[C@@H]2Oc1ccc2[nH]nc(-c3cnccn3)c2c1 (single isomer, unassigned) [Example 161, enantiomer 1, 8-((3-(Pyrazin-2-yl)-1H-indazol-5-yl)oxy)-5,6,7,8-tetrahydroquinoline-3-carbonitrile]
> 7.00 | > 7.00 | [2H][C@]1(Nc2ccc3[nH]nc(-c4cnco4)c3c2)CCCc2cc(C#N)cnc21 (single isomer, unassigned) [Example 162, enantiomer 2, 8-Deuterio-8-((3-(oxazol-5-yl)-1H-indazol-5-yl)amino)-5,6,7,8-tetrahydroquinoline-3-carbonitrile]
> 7.00 | > 7.00 | Cc1c(C#N)c(Cl)nc2c1CC[C@@H]2Oc1ccc2[nH]nc(-c3cnco3)c2c1 (single isomer, unassigned) [Example 166, enantiomer 1, 2-Chloro-4-methyl-7-[[3-(1,3-oxazol-5-yl)-1H-indazol-5-yl]oxy]-6,7-dihydro-5H-cyclopenta[b]pyridine-3-carbonitrile]
